Reference: ChEMBL document CHEMBL1201862, “PubChem BioAssay data set” (2004)
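In this assay, cells in 96-well plates receive the compound at five concentrations for 48 hours. Endpoints are linearly interpolated between the surrounding concentrations. At the GI50, growth is halved.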 Calls of active or inactive are those of the source. Rule as the data show it: active = GI50 up to about 1.1 µM and inactive = higher.

What was measured:
Test in all cases: NCI-60 cell line screen, 48 h
U-251 = system: U-251
HOP-92 = system: HOP-92
UACC-257 = system: UACC-257
CAKI-1 = system: CAKI-1
K562 = system: K562
NCI-H522 = system: NCI-H522
A498 = system: A498
SF-539 = system: SF-539
A549 = system: A549
SK-MEL-5 = system: SK-MEL-5
UO-31 = system: UO-31
HCT-116 = system: HCT-116
MOLT-4 = system: MOLT-4
SN12C = system: SN12C
786-0 = system: 786-0

| SMILES | GI50 (U-251) | GI50 (HOP-92) | GI50 (UACC-257) | GI50 (CAKI-1) | GI50 (K562) | GI50 (NCI-H522) | GI50 (A498) | GI50 (SF-539) | GI50 (A549) | GI50 (SK-MEL-5) | GI50 (UO-31) | GI50 (HCT-116) | GI50 (MOLT-4) | GI50 (SN12C) | GI50 (786-0) |
| --- | --- | --- | --- | --- | --- | --- | --- | --- | --- | --- | --- | --- | --- | --- | --- |
| COc1ccc(N2C(=O)c3c(c4[nH]c5ccccc5c4c4ccc(C(C)(C)C)cc34)C2=O)cc1 | 22.8 µM (inactive) | 14.7 µM (inactive) | > 100 µM (inactive) | 42 µM (inactive) | > 100 µM (inactive) | 33.2 µM (inactive) | 40.5 µM (inactive) | > 100 µM (inactive) | 47.1 µM (inactive) | > 100 µM (inactive) | 97.1 µM (inactive) | 69.7 µM (inactive) | 21.6 µM (inactive) | 64 µM (inactive) | 28.4 µM (inactive) |
| CCOc1ccccc1NC(=O)CCc1n[nH]c(=S)o1 | > 100 µM (inactive) | > 100 µM (inactive) | > 100 µM (inactive) | > 100 µM (inactive) | > 100 µM (inactive) | > 100 µM (inactive) |  | > 100 µM (inactive) | > 100 µM (inactive) | > 100 µM (inactive) | 63.4 µM (inactive) | > 100 µM (inactive) | > 100 µM (inactive) | > 100 µM (inactive) | > 100 µM (inactive) |
| CCCCCC1CC=CC(NC(=O)OCc2ccccc2)C1/C=C/CCCC1OCCO1 (stereo not given) | 73.5 µM (inactive) | > 45.7 µM (inactive) | 50.7 µM (inactive) | 23.5 µM (inactive) | 24.9 µM (inactive) | 20.8 µM (inactive) | 17.7 µM (inactive) | > 100 µM (inactive) | 23.3 µM (inactive) | 17.9 µM (inactive) | 13.1 µM (inactive) | 35.8 µM (inactive) | 12.5 µM (inactive) | > 100 µM (inactive) | > 100 µM (inactive) |
| COc1cc2c(c(OC)c1OC)-c1ccc(SC)c(=O)cc1C(CO)C2 (stereo not given) | 0.246 µM (active) | 0.451 µM (active) | 0.0578 µM (active) | 0.634 µM (active) | 0.0575 µM (active) | 0.0527 µM (active) | 0.107 µM (active) | 0.143 µM (active) | 0.22 µM (active) | 0.172 µM (active) | 0.455 µM (active) | 0.12 µM (active) | 0.596 µM (active) | 0.335 µM (active) | 0.355 µM (active) |
| CC1=Nn2c(nnc2-c2ccccc2Cl)NC(C)(C)C1 | 81.7 µM (inactive) | > 100 µM (inactive) |  | > 100 µM (inactive) | 42.9 µM (inactive) | 23.8 µM (inactive) |  | > 100 µM (inactive) | > 100 µM (inactive) | > 100 µM (inactive) | > 100 µM (inactive) | > 100 µM (inactive) | 47.3 µM (inactive) | > 100 µM (inactive) | > 100 µM (inactive) |
| C=CCOC1=C2CC[C@H](O)[C@@]2(C)CCC1=O | > 100 µM (inactive) | > 100 µM (inactive) | > 100 µM (inactive) | > 100 µM (inactive) |  | > 100 µM (inactive) | > 100 µM (inactive) | > 100 µM (inactive) | > 100 µM (inactive) | > 100 µM (inactive) | > 100 µM (inactive) | > 100 µM (inactive) | > 100 µM (inactive) | > 100 µM (inactive) | > 100 µM (inactive) |
| Nc1nc(SCc2ccc([N+](=O)[O-])cc2)nc2c1ncn2C1OC(CO)C(O)C1O (stereo not given) | > 100 µM (inactive) |  | > 100 µM (inactive) |  | > 100 µM (inactive) | 89.5 µM (inactive) | > 100 µM (inactive) |  | > 100 µM (inactive) | > 100 µM (inactive) | > 100 µM (inactive) | > 100 µM (inactive) | > 100 µM (inactive) | 96.6 µM (inactive) | > 100 µM (inactive) |
| Cc1nc(-n2nc(-c3ccccc3)cc2-c2ccccc2)sc1C(=O)/C=C/c1ccc(Cl)cc1 | 15.8 µM (inactive) | 18.4 µM (inactive) | 20.1 µM (inactive) | 17.5 µM (inactive) | > 10 µM (inactive) | 11.7 µM (inactive) | 23.2 µM (inactive) | 14.3 µM (inactive) | 19.5 µM (inactive) | 13.2 µM (inactive) | 9.06 µM (inactive) |  | 11.7 µM (inactive) | 25.6 µM (inactive) | 14.4 µM (inactive) |
| CCOC(OC1=C(C#N)CCC1)C(CC)[Se]c1ccccc1 (stereo not given) | 10.3 µM (inactive) | 23.4 µM (inactive) | 80.9 µM (inactive) | 41 µM (inactive) | 32.7 µM (inactive) | 13.8 µM (inactive) | 80.4 µM (inactive) | 19 µM (inactive) | 63.1 µM (inactive) | 15 µM (inactive) | 24.2 µM (inactive) | 26.2 µM (inactive) | 16.8 µM (inactive) | 14.3 µM (inactive) | 15 µM (inactive) |
| O=CC(O)C(O)C(O)COc1cc(CO)cc2c1C(=O)c1ccccc1C2=O (stereo not given) | > 100 µM (inactive) | > 100 µM (inactive) | > 100 µM (inactive) | > 93.8 µM (inactive) | > 100 µM (inactive) | > 100 µM (inactive) | > 100 µM (inactive) | > 100 µM (inactive) | > 100 µM (inactive) | 79.4 µM (inactive) | > 100 µM (inactive) | > 100 µM (inactive) | > 100 µM (inactive) | > 100 µM (inactive) | > 100 µM (inactive) |
| [N-]=[N+]=NC(c1cn(C2CC(O)C(CO)O2)c(=O)[nH]c1=O)C(I)I (stereo not given) | > 100 µM (inactive) | > 100 µM (inactive) | > 100 µM (inactive) | > 100 µM (inactive) | > 100 µM (inactive) |  | > 100 µM (inactive) | > 100 µM (inactive) | > 100 µM (inactive) | > 100 µM (inactive) | > 100 µM (inactive) | > 100 µM (inactive) | > 100 µM (inactive) | > 100 µM (inactive) | > 100 µM (inactive) |
| CCOC(=O)C1Oc2ccc([N+](=O)[O-])cc2C1(C)O (stereo not given) | > 100 µM (inactive) | > 100 µM (inactive) | > 100 µM (inactive) |  | > 100 µM (inactive) | > 100 µM (inactive) | > 100 µM (inactive) | > 100 µM (inactive) | > 100 µM (inactive) | > 100 µM (inactive) | > 100 µM (inactive) |  | > 100 µM (inactive) | > 100 µM (inactive) | > 100 µM (inactive) |
| C/C(=N\NC(=O)c1ccccc1O)C1=CNc2ccccc2S1 | 5.87 µM (inactive) |  | 3.1 µM (inactive) | 6.38 µM (inactive) | 3.75 µM (inactive) | 3.34 µM (inactive) | 3.8 µM (inactive) | 2.4 µM (inactive) | 3.63 µM (inactive) | 6.89 µM (inactive) | 2.14 µM (inactive) | 3.66 µM (inactive) | 2.08 µM (inactive) | 4.05 µM (inactive) | 4.71 µM (inactive) |
| CN(C)C(=N)NC(N)=S | > 100 µM (inactive) | > 100 µM (inactive) | > 100 µM (inactive) | > 100 µM (inactive) | > 100 µM (inactive) | > 100 µM (inactive) | > 100 µM (inactive) | > 100 µM (inactive) | > 100 µM (inactive) |  | > 100 µM (inactive) | > 100 µM (inactive) | > 100 µM (inactive) | > 100 µM (inactive) | > 100 µM (inactive) |
| O=c1[nH]c2c(nc1NC13CC4CC(CC(C4)C1)C3)c(=O)oc1ccccc12 | 16.6 µM (inactive) | > 100 µM (inactive) | > 100 µM (inactive) | 2.46 µM (inactive) | > 100 µM (inactive) | 61.1 µM (inactive) |  | 14.9 µM (inactive) | 34 µM (inactive) | 36.9 µM (inactive) | > 100 µM (inactive) | > 100 µM (inactive) | > 100 µM (inactive) | > 100 µM (inactive) | > 100 µM (inactive) |
| C=CC/C=C/C/C=C/CCCCCCCc1cccc(O)c1C(=O)O | 19.7 µM (inactive) | 23.7 µM (inactive) | 73.3 µM (inactive) | 32.1 µM (inactive) | 33.3 µM (inactive) | 39.5 µM (inactive) |  | 69.5 µM (inactive) | 33 µM (inactive) |  | 25.2 µM (inactive) | > 100 µM (inactive) | 42.8 µM (inactive) |  | > 100 µM (inactive) |
| Cn1ncc(=S)[nH]c1=S | > 100 µM (inactive) | > 100 µM (inactive) |  |  | > 100 µM (inactive) | > 100 µM (inactive) | > 100 µM (inactive) | > 100 µM (inactive) | > 100 µM (inactive) |  | > 100 µM (inactive) | > 100 µM (inactive) | > 100 µM (inactive) | > 100 µM (inactive) | > 100 µM (inactive) |
| Cc1ccc(S(=O)(=O)NNS(C)(=O)=O)cc1 | > 100 µM (inactive) |  | > 100 µM (inactive) | > 100 µM (inactive) | > 100 µM (inactive) | > 100 µM (inactive) |  | > 100 µM (inactive) | > 100 µM (inactive) | > 100 µM (inactive) | > 100 µM (inactive) | > 100 µM (inactive) | > 100 µM (inactive) | > 100 µM (inactive) | > 100 µM (inactive) |
| CCOC(=O)C(=O)C1C(=O)Nc2ccccc21 (stereo not given) | > 100 µM (inactive) | 50.8 µM (inactive) | > 100 µM (inactive) | > 100 µM (inactive) | > 100 µM (inactive) |  | > 100 µM (inactive) |  | > 100 µM (inactive) |  | > 100 µM (inactive) | > 100 µM (inactive) | > 100 µM (inactive) | > 100 µM (inactive) | > 100 µM (inactive) |
| O=S1(=O)c2ccccc2N=C(c2ccccc2Cl)CC1c1ccc(F)cc1 (stereo not given) | 15.1 µM (inactive) | 17.7 µM (inactive) | 11.9 µM (inactive) | 14.4 µM (inactive) | 7.62 µM (inactive) | 13.6 µM (inactive) | 17.5 µM (inactive) | 20.3 µM (inactive) | 20 µM (inactive) | 16.5 µM (inactive) | 15.2 µM (inactive) | 10.8 µM (inactive) | 13.7 µM (inactive) | 15.2 µM (inactive) | 16.6 µM (inactive) |
